Several values for one entry are separate records, joined by “and”; a condition that tells them apart may be missing. Identical values can stand only once.
Assays:
[1] = In vitro release kinetics of trans-resveratrol formulation (USP dissolution apparatus); type: physicochemical; conditions: pH 6.5 and 2, FIG. 2
Method: Briefly, a 50 mg of RF-20 was dispersed in a 10 mL solution of appropriate pH and kept under constant stirring at 37±0.5° C. […] The amount of resveratrol content in the solution was determined by HPLC, with the help of a calibration curve. The experiment was performed in triplicate and the mean cumulative percentage of released resveratrol was calculated and plotted against time to follow the release kinetics.

[2] = Pharmacokinetics study of resveratrol, randomized double-blinded crossover, capsules and sachets; type: in vivo, human; conditions: for Tmax: human, plasma, read-out: Free Resveratrol Tmax
Method: The bioavailability study in human subjects was carried out in two phases. In the first phase, identical hard shell gelatin capsules of either the trans-resveratrol powder formulation obtained in example 1 (RF-20) or unformulated resveratrol (U-tRES) containing 80 mg of trans-resveratrol were provided. […] The unformulated capsule contained 80±5 mg of trans-resveratrol with 98.2% purity isolated from Japanese Knotweed (U-tRES) by an ethanol/water extraction process and about 300 mg of microcrystalline cellulose as an excipient. In the second phase, the same dose of either the trans-resveratrol powder formulation or the unformulated resveratrol was administered in identical stick packs, each weighing about 3 g. Maltodextrin was used as an additive to make up the sachet packs to 3 g and the participants were asked to drink one sachet with about 240 mL of water. The double-blinded, placebo-controlled, randomized pharmacokinetic study was conducted using both capsules and sachets, to investigate the influence of delivery form on the relative bioavailability of trans-resveratrol from RF-20 and U-tRES. Each dose of either the resveratrol powder formulation or the unformulated resveratrol delivered 80±5 mg of trans-resveratrol. […] The blood samples were analysed by tandem mass spectrometry using QTRAP technology to detect, confirm and quantify ‘free’ resveratrol content in biomatrices.

[3] = Pharmacokinetics of fisetin powder formulation in healthy human subjects; type: in vivo; conditions: human plasma
Method: The bioavailability of the fisetin formulation was evaluated in healthy human subjects. It has been evaluated in a single dose, randomized, comparative, double-blinded crossover design was adopted to evaluate the difference in the bioavailability and pharmacokinetic parameters (Cmax, AUC, Tmax, and t½) of free (unconjugated) fisetin and geraldol following the oral administration of a fisetin formulation obtained in example 6 (FF-20) and unformulated fisetin (UF). The participants were provided with a capsule contained 500±25 mg of UF or FF-20. Around 50 mg of microcrystalline cellulose was present in each capsule as a flow-improving excipient. Following administration, blood samples (2 mL) were collected 5 min (t0) prior to oral dosing and subsequently at 0.5, 1, 2, 3, 5, 8, and 12 h after oral ingestion of UF or FF-20, using an indwelling venous cannula. Participants were provided with a standardized breakfast, lunch, snack, and dinner respectively at 1, 4, 8, and 12 h after dosing. Plasma was separated by centrifugation at 11,950×g for 10 min at 4° C. and stored for a maximum of two days at −20° C. for analysis. Fisetin and geraldol in plasma samples were extracted and subjected to UPLC-ESI-MS/MS analyses.

[4] = In vitro release kinetics of calcium ascorbate formulation; type: physicochemical; conditions: stomach and intestinal pH conditions, FIG. 5
Method: The in vitro release of ascorbic acid from the calcium ascorbate powder formulation was determined in water containing 1.6 mmol of the disodium salt of EDTA (ethylenediamine tetra acetic acid) at pH 2.0 and 6.8 using 0.1 M HCl and phosphate buffer respectively. 500 mg of calcium ascorbate powder formulation was mixed with 500 mL of EDTA solution to obtain the calcium ascorbate solution. The pH of the calcium ascorbate solution was adjusted and agitated at 100 rpm. About 1 mL of the solution was carefully withdrawn at regular intervals of 0, 1, 2, 4, 6, and 8 h and made up to 100 mL with water. The ascorbate content was then analysed by HPLC method. Analysis was performed in triplicate and the mean cumulative percentage of released ascorbate was calculated and plotted against time to study the in vitro release kinetics of CAAS from the fenugreek galactomannan matrix.

[5] = Pharmacokinetics of calcium ascorbate formulation in healthy volunteers; type: in vivo, human; conditions: single oral dose of 1000 mg
Source text: The relative bioavailability of the calcium ascorbate formulation obtained in Example 5 (FC+) with respect to the unformulated CAAS (UF-CAAS) powder with >98% purity was investigated in healthy volunteers.
The study was designed as a randomized, double-blinded, single dose study on healthy volunteers. Healthy volunteers (males and females) (n ¼14) aged 18 to 65 years having BMI between 18-25 kgm^−2 were enrolled for the study. Those who were having a history of gut disorders such as irritable bowel syndrome, ulcerative colitis, gastro-oesophageal reflux.
Selected participants were randomized into one of the three treatment arms consisting of three single dose treatments, with either formulated (tablets and capsules) or unformulated (UFCAAS) tablets.
Tablets and hard-shell two-piece hypromellose capsules of both FC+ and UF-CAAS were prepared in such a way that each tablet weighs about 1000±25 mg and each capsule contains 500±25 mg with similar content of CAAS. The study participants were orally administered with a single dose of 1000 mg tablet or capsule as per the study protocol, along with 200±10 mL of normal drinking water.
The quantification of calcium ascorbate in plasma was carried out by a validated HPLC method.

[6] = human plasma, capsule, 80 mg trans-resveratrol per dose
[7] = human plasma, sachet, 80 mg trans-resveratrol per dose

Compound: Oc1ccc(/C=C/c2cc(O)cc(O)c2)cc1 [U-tRES, trans-resveratrol]
- solubility in release medium [1]: insoluble
- Tmax ([2]; both sexes, oral, 80 mg, human plasma, capsule, 80 mg trans-resveratrol per dose): 1.07 ± 0.26 h
- Tmax ([2]; both sexes, oral, 80 mg, human plasma, sachet, 80 mg trans-resveratrol per dose): 1.21 ± 0.42 h
- half-life ([2]; both sexes, oral, human plasma, sachet, 80 mg trans-resveratrol per dose, read-out: Free Resveratrol t1/2 (converted)): 1.58 ± 0.65 h
- time after which plasma levels were undetectable ([2]; free resveratrol, sachet): 3 h
- free resveratrol AUC0-24 h ([2]; human plasma, capsule, 80 mg): 32.05 ± 9.97 ng·h/mL
- Free Resveratrol AUC0-24 [2, 6]: 32.05 ng·h/mL
- Free Resveratrol Cmax [2, 6]: 16.34 ng/mL
- Free Resveratrol t1/2 [2, 6]: 1.58 h
- Free Resveratrol Cmax ([2]; human plasma, capsule, 80 mg trans-resveratrol per dose, listed as UtRES): 16.34 ± 5.67 ng/mL
- Free Resveratrol AUC0-24 [2, 7]: 31.93 ng·h/mL
- Free Resveratrol Cmax [2, 7]: 15.07 ± 5.10 ng/mL and 15.07 ng/mL
- tolerability (side effects or adverse events) ([2]; n=16, both phases, 80±5 mg trans-resveratrol per dose): without any significant side effects or adverse events

Compound: O=c1c(O)c(-c2ccc(O)c(O)c2)oc2cc(O)ccc12 [UF, fisetin]
- Tmax ([3]; 500 mg, single oral dose): 0.88 h
- Cmax ([3]; 500 mg, single oral dose, normalized for the higher fisetin intake in UF): 9.97 ng/mL
- AUC(0-t) ([3]; 500 mg, single oral dose, normalized for the higher fisetin intake in UF, read-out: Fisetin AUC0-12): 12.7 ng·h/mL
- half-life ([3]; 500 mg, single oral dose, read-out: Fisetin t1/2 (converted)): 1.14 h
- time after dosing up to which fisetin levels were quantifiable [3]: 2 h

Compound: calcium ascorbate [UF-CAAS]
- in vitro release behaviour [4]: sustained release
- AUC (plasma ascorbate) [5]: 311.4 ± 63.87^ μM · h/mL
- MRT (plasma ascorbate) [5]: 22.67 ± 2.02 h
- T1/2 (plasma ascorbate) [5]: 3.6 h
- Tmax (plasma ascorbate) [5]: 1 h
- Cmax ([5]; read-out: Cmax (plasma ascorbate)): 51.7 ± 21 µM
